Assay results as given in patent US20230027066A1 (Urovant Sciences GmbH, priority 2019, published 2023).
Where two headings read alike, the source gives them in different places.

How the values were obtained:
[1] = Source text: A placebo group was included in the main study, and a group that received tolterodine monotherapy was included in the main study and in the extension.
[2] = Phase 2b study, vital sign (HR, SBP, DBP) changes and orthostatic AEs; type: in vivo, human
Source text: None led to discontinuation. The overall incidence of orthostatic symptoms was low.
Small differences in the percent of subjects exceeding categorical heart rate and blood pressure thresholds for vibegron were similar to those in the tolterodine arm.

[3] = Phase 3 study (75 mg), heart rate and blood pressure changes; type: in vivo, human
Source text: Study assessments of safety included adverse events, physical examinations, vital signs (and weight), and clinical laboratory tests
Categorical changes are based on 3 consecutive post-baseline visits and patients are counted in all applicable categories (e.g., if a patient has a 12 unit increase then that patient is counted in both ≥5 and ≥10 unit columns).
Blood Pressure assessments are taken in triplicate and averaged at each visit.

[4] = 40-week extension study (52 weeks), adverse events
Source text: Approximately 500 men and women with overactive bladder who completed 12 weeks in the parent study were permitted to enroll, at approximately 110 study sites in the U.S.
Secondary endpoints were evaluation of CFB at Week 52 in average number of micturitions, Urge Urinary Incontinence (UUI) episodes, urgency episodes, and total urinary incontinence episodes. All CFB calculations used the parent study Baseline value.

[5] = system: men and women with overactive bladder; assay: extension study, OAB-q LF coping subscore at Week 52; type: in vivo, human; settings: for OAB-q LF Coping Subscore, Week 52 Mean: Full Analysis Set Extension; for OAB-q LF Coping Subscore, Change from Baseline Mean at Week 52: baseline from parent study
[6] = 3 consecutive post-baseline visits

O=C(Nc1ccc(C[C@@H]2CC[C@H]([C@H](O)c3ccccc3)N2)cc1)[C@@H]1CCc2nccc(=O)n21 [Vibegron, (6S)-N-[4-[[(2S,5R)−5-[(R)-hydroxy(phenyl)methyl]pyrrolidin−2-yl]methyl]phenyl]−4-oxo−7,8-dihydro−6H-pyrrolo[1,2-a]pyrimidine−6-carboxamide]
frequency of injuries ([1]; human, in vivo): 0.9%
Accidental overdose ([1]; vibegron 3 mg): 3 (2.1) n (%)
Accidental overdose ([1]; vibegron 15 mg): 6 (4.5) n (%)
Accidental overdose ([1]; vibegron 50 mg): 4 (2.7) n (%)
Accidental overdose ([1]; vibegron 100 mg): 11 (4.2) n (%)
DBP change from baseline, mean (95% CI) maximum, week 1 to 8 ([2]; vibegron 3 mg): 5.03 (3.92, 6.15) mm Hg
DBP change from baseline, mean (95% CI), week 1 ([2]; vibegron 3 mg): −0.37 (−1.69, 0.95) mm Hg
HR change from baseline, mean (95% CI) maximum, week 1 to 8 ([2]; vibegron 3 mg): 5.57 (4.25, 6.90) bpm
HR change from baseline, mean (95% CI), week 1 ([2]; vibegron 3 mg): 0.36 (−0.90, 1.62) bpm
SBP change from baseline, mean (95% CI) maximum, week 1 to 8 ([2]; vibegron 3 mg): 7.14 (5.18, 9.10) mm Hg
SBP change from baseline, mean (95% CI), week 1 ([2]; vibegron 3 mg): −0.35 (−2.34, 1.65) mm Hg
DBP change from baseline, mean (95% CI) maximum, week 1 to 8 ([2]; vibegron 15 mg): 6.37 (5.20, 7.53) mm Hg
DBP change from baseline, mean (95% CI), week 1 ([2]; vibegron 15 mg): 0.03 (−1.52, 1.59) mm Hg
HR change from baseline, mean (95% CI) maximum, week 1 to 8 ([2]; vibegron 15 mg): 6.56 (5.20, 7.92) bpm
HR change from baseline, mean (95% CI), week 1 ([2]; vibegron 15 mg): 0.35 (−1.15, 1.85) bpm
SBP change from baseline, mean (95% CI) maximum, week 1 to 8 ([2]; vibegron 15 mg): 8.93 (7.18, 10.67) mm Hg
SBP change from baseline, mean (95% CI), week 1 ([2]; vibegron 15 mg): −0.34 (−2.46, 1.78) mm Hg
subjects with orthostatic related AEs ([2]; vibegron 15 mg): 0.3%
DBP change from baseline, mean (95% CI) maximum, week 1 to 8 ([2]; vibegron 50 mg): 4.19 (3.10, 5.29) mm Hg
DBP change from baseline, mean (95% CI), week 1 ([2]; vibegron 50 mg): −0.70 (−2.07, 0.67) mm Hg
HR change from baseline, mean (95% CI) maximum, week 1 to 8 ([2]; vibegron 50 mg): 5.49 (4.28, 6.69) bpm
HR change from baseline, mean (95% CI), week 1 ([2]; vibegron 50 mg): 0.29 (−0.88, 1.46) bpm
SBP change from baseline, mean (95% CI) maximum, week 1 to 8 ([2]; vibegron 50 mg): 7.01 (5.31, 8.70) mm Hg
SBP change from baseline, mean (95% CI), week 1 ([2]; vibegron 50 mg): −0.79 (−2.65, 1.08) mm Hg
SBP and DBP, difference between placebo and vibegron in mean changes at Week 1 and mean maximum changes over 8 weeks ([2]; vibegron 50 mg and 100 mg): < 1 mm Hg
DBP change from baseline, mean (95% CI) maximum, week 1 to 8 ([2]; vibegron 100 mg): 4.80 (3.88, 5.72) mm Hg
DBP change from baseline, mean (95% CI), week 1 ([2]; vibegron 100 mg): −0.69 (−1.72, 0.34) mm Hg
HR change from baseline, mean (95% CI) maximum, week 1 to 8 ([2]; vibegron 100 mg): 6.12 (5.10, 7.15) bpm
HR change from baseline, mean (95% CI), week 1 ([2]; vibegron 100 mg): 0.35 (−0.69, 1.38) bpm
SBP change from baseline, mean (95% CI) maximum, week 1 to 8 ([2]; vibegron 100 mg): 6.51 (5.09, 7.93) mm Hg
SBP change from baseline, mean (95% CI), week 1 ([2]; vibegron 100 mg): −0.77 (−2.22, 0.68) mm Hg
percent of subjects with a change from baseline in DBP >15 mmHg ([2]; vibegron 100 mg): 1.3%
subjects with orthostatic related AEs ([2]; vibegron 100 mg): 1.1%
HR, mean maximum changes over 8 weeks, difference to placebo ([2]; vibegron, all doses): < 2 bpm
Diastolic BP categorical change from baseline ≥5 mm Hg, patients [3, 6]: 7.0%
Diastolic BP categorical change from baseline ≥10 mm Hg, patients [3, 6]: 1.3%
Diastolic BP categorical change from baseline ≥15 mm Hg, patients [3, 6]: 0.2%
Heart Rate categorical change from baseline ≥5 bpm, patients [3, 6]: 8.6%
Heart Rate categorical change from baseline ≥10 bpm, patients [3, 6]: 1.8%
Heart Rate categorical change from baseline ≥15 bpm, patients [3, 6]: 0.4%
Systolic BP categorical change from baseline ≥5 mm Hg, patients [3, 6]: 11.2%
Systolic BP categorical change from baseline ≥10 mm Hg, patients [3, 6]: 4.2%
Systolic BP categorical change from baseline ≥15 mm Hg, patients [3, 6]: 1.3%
Diastolic BP, 12-week change (95% CI) ([3]; Hypertensive at baseline): −3.2 (−6.3, −0.1) mm Hg
Heart Rate, 12-week change ([3]; Hypertensive at baseline): +2.2 beats/minute
Systolic BP, 12-week change (95% CI) ([3]; Hypertensive at baseline): −9.1 (−13.8, −4.4) mm Hg
Diastolic BP, 12-week change (95% CI) ([3]; Normotensive at baseline): +0.5 (−0.2, +1.1) mm Hg
Heart Rate, 12-week change ([3]; Normotensive at baseline): +0.4 beats/minute
Systolic BP, 12-week change (95% CI) ([3]; Normotensive at baseline): +1.0(0, +2.0) mm Hg
Diastolic BP, Mean Change from Baseline at Week 12 (SD) ([3]; Week 12, all patients): 0.2 (7.43) mm Hg
Heart Rate, Mean Change from Baseline at Week 12 ([3]; Week 12, all patients): 0.5 beats/minute
Systolic BP, Mean Change from Baseline at Week 12 ([3]; Week 12, all patients): 0.2 mm Hg
Discontinued the study: Death ([4]; 40-Weeks arm): 1 (1.1) n (%)
Discontinued the study: Death ([4]; 52-Weeks arm): 0 n (%)
SAEs resulting in death (not considered related by Investigator or Sponsor) ([4]; Overall groups): 1 (0.4) n (%)
Discontinued the study: Death ([4]; Overall groups, Randomized Set Extension): 1 (0.4) n (%)
Discontinued the study: Adverse Event ([4]; both, human, in vivo): 4 (1.5) n (%)
Patients with at least one treatment-emergent adverse event ([4]; both, human, in vivo): 171 (62.6) n (%)
Patients with at least one treatment-emergent serious AE ([4]; both, human, in vivo): 9 (3.3) n (%)
SAEs considered treatment-related by the investigator ([4]; both, human, in vivo): 1 (0.4) n (%)
SAEs: Hospitalization ([4]; both, human, in vivo): 7 (2.6) n (%)
SAEs: Other serious criteria ([4]; both, human, in vivo): 1 (0.4) n (%)
Discontinued the study: Adverse Event ([4]; both, human, in vivo, 40 weeks): 1 (1.1) n (%)
AE leading to discontinuation of study drug: Acute prerenal failure ([4]; both, human, in vivo, 52 weeks): 0 n (%)
AE leading to discontinuation of study drug: Amnesia ([4]; both, human, in vivo, 52 weeks): 1 (0.4) n (%)
AE leading to discontinuation of study drug: Any ([4]; both, human, in vivo, 52 weeks): 4 (1.5) n (%)
AE leading to discontinuation of study drug: Aortic stenosis ([4]; both, human, in vivo, 52 weeks): 0 n (%)
AE leading to discontinuation of study drug: Atrial fibrillation ([4]; both, human, in vivo, 52 weeks): 0 n (%)
AE leading to discontinuation of study drug: Blood creatinine increased ([4]; both, human, in vivo, 52 weeks): 1 (0.4) n (%)
AE leading to discontinuation of study drug: Blood urea increased ([4]; both, human, in vivo, 52 weeks): 1 (0.4) n (%)
AE leading to discontinuation of study drug: Cardiac failure ([4]; both, human, in vivo, 52 weeks): 0 n (%)
AE leading to discontinuation of study drug: Cardiomyopathy ([4]; both, human, in vivo, 52 weeks): 0 n (%)
AE leading to discontinuation of study drug: Chronic kidney disease ([4]; both, human, in vivo, 52 weeks): 0 n (%)
AE leading to discontinuation of study drug: Constipation ([4]; both, human, in vivo, 52 weeks): 1 (0.4) n (%)
AE leading to discontinuation of study drug: Diarrhea ([4]; both, human, in vivo, 52 weeks): 1 (0.4) n (%)
AE leading to discontinuation of study drug: Dizziness ([4]; both, human, in vivo, 52 weeks): 0 n (%)
AE leading to discontinuation of study drug: Dry eye ([4]; both, human, in vivo, 52 weeks): 0 n (%)
AE leading to discontinuation of study drug: Dyspnoea ([4]; both, human, in vivo, 52 weeks): 0 n (%)
AE leading to discontinuation of study drug: Haematuria ([4]; both, human, in vivo, 52 weeks): 0 n (%)
AE leading to discontinuation of study drug: Headache ([4]; both, human, in vivo, 52 weeks): 0 n (%)
AE leading to discontinuation of study drug: Intervertebral disc degeneration ([4]; both, human, in vivo, 52 weeks): 0 n (%)
AE leading to discontinuation of study drug: Mitral valve incompetence ([4]; both, human, in vivo, 52 weeks): 0 n (%)
AE leading to discontinuation of study drug: Osteoarthritis ([4]; both, human, in vivo, 52 weeks): 0 n (%)
AE leading to discontinuation of study drug: Pulmonary embolism ([4]; both, human, in vivo, 52 weeks): 0 n (%)
AE leading to discontinuation of study drug: Sinus tachycardia ([4]; both, human, in vivo, 52 weeks): 0 n (%)
AE leading to discontinuation of study drug: Tricuspid valve incompetence ([4]; both, human, in vivo, 52 weeks): 0 n (%)
AE: Anaemia ([4]; both, human, in vivo, 52 weeks): 7 (2.6) n (%)
AE: Atrial fibrillation ([4]; both, human, in vivo, 52 weeks): 0 n (%)
AE: Back pain ([4]; both, human, in vivo, 52 weeks): 6 (2.2) n (%)
AE: Blood pressure increased ([4]; both, human, in vivo, 52 weeks): 2 (0.7) n (%)
AE: Bronchitis ([4]; both, human, in vivo, 52 weeks): 8 (2.9) n (%)
AE: Constipation ([4]; both, human, in vivo, 52 weeks): 10 (3.7) n (%)
AE: Diarrhea ([4]; both, human, in vivo, 52 weeks): 13 (4.8) n (%)
AE: Dizziness ([4]; both, human, in vivo, 52 weeks): 4 (1.5) n (%)
AE: Dry mouth ([4]; both, human, in vivo, 52 weeks): 5 (1.8) n (%)
AE: Fatigue ([4]; both, human, in vivo, 52 weeks): 3 (1.1) n (%)
AE: Headache ([4]; both, human, in vivo, 52 weeks): 15 (5.5) n (%)
AE: Hyperglycemia ([4]; both, human, in vivo, 52 weeks): 7 (2.6) n (%)
AE: Hypertension ([4]; both, human, in vivo, 52 weeks): 24 (8.8) n (%)
AE: Hypotension ([4]; both, human, in vivo, 52 weeks): 0 n (%)
AE: Musculoskeletal pain ([4]; both, human, in vivo, 52 weeks): 6 (2.2) n (%)
AE: Nasopharyngitis ([4]; both, human, in vivo, 52 weeks): 13 (4.8) n (%)
AE: Nausea ([4]; both, human, in vivo, 52 weeks): 10 (3.7) n (%)
AE: Residual urine volume increased ([4]; both, human, in vivo, 52 weeks): 7 (2.6) n (%)
AE: Syncope ([4]; both, human, in vivo, 52 weeks): 0 n (%)
AE: Tachycardia (Sinus Tachycardia) ([4]; both, human, in vivo, 52 weeks): 1 (0.4) n (%)
AE: Upper respiratory tract infection ([4]; both, human, in vivo, 52 weeks): 10 (3.7) n (%)
AE: Urinary retention ([4]; both, human, in vivo, 52 weeks): 3 (1.1) n (%)
AE: Urinary tract infection ([4]; both, human, in vivo, 52 weeks): 18 (6.6) n (%)
Discontinued the study: Adverse Event ([4]; both, human, in vivo, 52 weeks): 3 (1.6) n (%)
OAB-q LF Coping Subscore, Week 52 Mean ([5]; 40-Week treatment group): 86.3
OAB-q LF Coping Subscore, Change from Baseline Mean at Week 52 ([5]; 40-Week treatment group): 28.3
OAB-q LF Coping Subscore, Week 52 Mean ([5]; 52-Week treatment group): 83.6
OAB-q LF Coping Subscore, Change from Baseline Mean at Week 52 ([5]; 52-Week treatment group): 27.1
